Data from patent US20070049564A1 (Wyeth, priority 2005, published 2007).
In brackets after ≈: the same amount, converted by molar mass. Read-outs that look alike come from different tables or passages of the source.

Key:
E. coli GC 2236 = assay: MIC, broth microdilution; settings: Escherichia coli, GC2236, E. coli GC 2236
E. coli GC 2235 = assay: MIC, broth microdilution; settings: Escherichia coli, GC2235, E. coli GC 2235
E. coli GC 2233 = assay: MIC, broth microdilution; settings: Escherichia coli, GC2233, E. coli GC 2233
E. coli GC 2270 = assay: MIC, broth microdilution; settings: Escherichia coli, GC2270, E. coli GC 2270
E. coli GC 2271 = assay: MIC, broth microdilution; settings: Escherichia coli, GC2271, E. coli GC 2271
E. coli GC 4559 = assay: MIC, broth microdilution; settings: Escherichia coli, GC4559, E. coli GC 4559
E. coli GC 4560 = assay: MIC, broth microdilution; settings: Escherichia coli, GC4560, E. coli GC 4560
E. coli GC 6465 = assay: MIC, broth microdilution; settings: Escherichia coli, GC6465, E. coli GC 6465
E. coli GC 2203 = assay: MIC, broth microdilution; settings: Escherichia coli, GC2203, E. coli GC 2203
E. coli GC 1073 = assay: MIC, broth microdilution; settings: Escherichia coli, GC1073, E. coli GC 1073
Protocol: (§1) Antimicrobial susceptibility testing. The in vitro activities of the antibiotics are determined by the broth microdilution method as recommended by the National Committee for Clinical Laboratory Standards (NCCLS) (1). Mueller-Hinton II broth (MHBII)(BBL Cockeysville, Md.) is the medium employed in the testing procedures. Microtiter plates containing serial dilutions of each antimicrobial agent are inoculated with each organism to yield the appropriate density (10^5 CFU/ml) in a 100 μl final volume. The plates are incubated for 18-22 hours at 35° C. in ambient air.
Representative compounds were first incubated in mouse serum for an hour prior to the in vitro testing against a panel of selected gram-positive and gram-negative bacteria strains. All compounds were also pre-incubated in water for an hour prior to testing as control. Representative compounds of Formula I were incubated in human serum prior to MIC determination.

P. aeruginosa GC 2214 = assay: MIC, broth microdilution; settings: Pseudomonas aeruginosa, GC2214, P. aeruginosa GC 2214
S. aureus GC 6467 = assay: MIC, broth microdilution; settings: Staphylococcus aureus, GC6467, S. aureus GC 6467
Protocol: as §1
Representative compounds were first incubated in mouse serum for an hour prior to the in vitro testing against a panel of selected gram-positive and gram-negative bacteria strains. All compounds were also pre-incubated in water for an hour prior to testing as control.

S. aureus GC 4536 = assay: MIC, broth microdilution; settings: Staphylococcus aureus, GC4536, S. aureus GC 4536
S. aureus GC 6469 = assay: MIC, broth microdilution; settings: Staphylococcus aureus, GC6469, S. aureus GC 6469
E. faecalis GC 4555 = assay: MIC, broth microdilution; settings: Enterococcus faecalis, GC4555, E. faecalis GC 4555
E. faecalis GC 2265 = assay: MIC, broth microdilution; settings: Enterococcus faecalis, GC2265, E. faecalis GC 2265
E. faecalis GC 2242 = assay: MIC, broth microdilution; settings: Enterococcus faecalis, GC2242, E. faecalis GC 2242
S. agalactiae GC 4564 = assay: MIC, broth microdilution
E. coli = assay: Range of MIC for E. coli strains; settings: Escherichia coli
Staph. = assay: Range of MIC for Staph. strains, including MRSA; settings: Staphylococcus aureus, MRSA
[1] = 20 h, read-out: Range of MIC, E. coli (Mouse Serum)
[2] = read-out: Range of MIC, E. coli (mouse serum)
[3] = read-out: Range of MIC, Staph (Mouse Serum)
[4] = read-out: Range of MIC, Staph (Water)
[5] = read-out: Range of MIC, Staph. (mouse serum)
[6] = read-out: Range of MIC, Staph. (water)

Molecule `CCCN(CC(=O)Nc1cc(N(C)C)c2c(c1O)C(=O)C1=C(O)[C@]3(O)C(=O)C(C(N)=O)=C(O)[C@@H](N(C)C)[C@@H]3C[C@@H]1C2)C(=O)OCOC(=O)C(C)C` [Example 10, ({[(2-{[(5aR,6aS,7S,10aS)-9-(aminocarbonyl)-4,7-bis(dimethylamino)-1,8,10a,11-tetrahydroxy-10,12-dioxo-5,5a,6,6a,7,10,10a,12-octahydrotetracen-2-yl]amino}-2-oxoethyl)(propyl)amino]carbonyl}oxy)methyl 2-methylpropanoate] has an MIC (E. coli GC 2236; Mouse Serum pre-incubation) of 0.5 µg/mL (≈ 0.699 µM), an MIC (E. coli GC 2236; Water pre-incubation) of 8 µg/mL (≈ 11.2 µM) and an MIC (E. coli GC 2235; Mouse Serum pre-incubation) of 0.25 µg/mL (≈ 0.349 µM). For the same molecule, the MIC (E. coli GC 2235; Water pre-incubation) was 4 µg/mL (≈ 5.59 µM), the MIC (E. coli GC 2233; Mouse Serum pre-incubation) was 0.5 µg/mL (≈ 0.699 µM) and the MIC (E. coli GC 2233; Water pre-incubation) was 8 µg/mL (≈ 11.2 µM). For the same molecule, the MIC (E. coli GC 2270; Mouse Serum pre-incubation) was 0.5 µg/mL (≈ 0.699 µM), the MIC (E. coli GC 2270; Water pre-incubation) was 8 µg/mL (≈ 11.2 µM) and the MIC (E. coli GC 2271; Mouse Serum pre-incubation) was 0.25 µg/mL (≈ 0.349 µM). The MIC (E. coli GC 2271; Water pre-incubation) was 8 µg/mL (≈ 11.2 µM), the MIC (E. coli GC 4559; Mouse Serum pre-incubation) was 0.5 µg/mL (≈ 0.699 µM) and the MIC (E. coli GC 4559; Water pre-incubation) was 16 µg/mL (≈ 22.4 µM). For the same molecule, the MIC (E. coli GC 4560; Mouse Serum pre-incubation) was 0.12 µg/mL (≈ 0.168 µM), the MIC (E. coli GC 4560; Water pre-incubation) was 0.12 µg/mL (≈ 0.168 µM) and the MIC (E. coli GC 6465; Mouse Serum pre-incubation) was 8 µg/mL (≈ 11.2 µM). For the same molecule, the MIC (E. coli GC 6465; Water pre-incubation) was > 64 µg/mL, the MIC (E. coli GC 2203; Mouse Serum pre-incubation) was 0.5 µg/mL (≈ 0.699 µM) and the MIC (E. coli GC 2203; Water pre-incubation) was 8 µg/mL (≈ 11.2 µM). It also gave an MIC (E. coli GC 1073; Mouse Serum pre-incubation) of 0.5 µg/mL (≈ 0.699 µM), an MIC (E. coli GC 1073; Water pre-incubation) of 16 µg/mL (≈ 22.4 µM) and an MIC (P. aeruginosa GC 2214; Mouse Serum pre-incubation) of 16 µg/mL (≈ 22.4 µM). The MIC (P. aeruginosa GC 2214; Water pre-incubation) was > 64 µg/mL, the MIC (S. aureus GC 6467; Mouse Serum pre-incubation) was 2 µg/mL (≈ 2.79 µM) and the MIC (S. aureus GC 6467; Water pre-incubation) was 2 µg/mL (≈ 2.79 µM). The MIC (S. aureus GC 4536; Mouse Serum pre-incubation) was 0.25 µg/mL (≈ 0.349 µM), the MIC (S. aureus GC 4536; Water pre-incubation) was 0.5 µg/mL (≈ 0.699 µM) and the MIC (S. aureus GC 6469; Mouse Serum pre-incubation) was 1 µg/mL (≈ 1.4 µM). The MIC (S. aureus GC 6469; Water pre-incubation) was 2 µg/mL (≈ 2.79 µM), the MIC (E. faecalis GC 4555; Mouse Serum pre-incubation) was 0.5 µg/mL (≈ 0.699 µM) and the MIC (E. faecalis GC 4555; Water pre-incubation) was 1 µg/mL (≈ 1.4 µM). The MIC (E. faecalis GC 2265; Mouse Serum pre-incubation) was 1 µg/mL (≈ 1.4 µM), the MIC (E. faecalis GC 2265; Water pre-incubation) was 1 µg/mL (≈ 1.4 µM) and the MIC (E. faecalis GC 2242; Mouse Serum pre-incubation) was 0.25 µg/mL (≈ 0.349 µM). The MIC (E. faecalis GC 2242; Water pre-incubation) was 0.5 µg/mL (≈ 0.699 µM), the MIC (S. agalactiae GC 4564; Streptococcus agalactiae, GC4564, S. agalactiae GC 4564, Mouse Serum pre-incubation) was < 0.06 µg/mL and the MIC (S. agalactiae GC 4564; Streptococcus agalactiae, GC4564, S. agalactiae GC 4564, Water pre-incubation) was 0.12 µg/mL (≈ 0.168 µM). The MIC (E. coli; [1]) was 0.25 to 2 µg/mL (≈ 0.349 to 2.79 µM), the MIC (E. coli; read-out: Range of MIC, E. coli (Water)) was 4 to 32 µg/mL (≈ 5.59 to 44.7 µM) and the MIC (E. coli; [2]) was 0.25 to 2 µg/mL (≈ 0.349 to 2.79 µM). For the same molecule, the MIC (E. coli; read-out: Range of MIC, E. coli (water)) was 4 to 32 µg/mL (≈ 5.59 to 44.7 µM), the MIC (Staph.; [3]) was 0.25 to 2 µg/mL (≈ 0.349 to 2.79 µM) and the MIC (Staph.; [4]) was 0.12 to 2 µg/mL (≈ 0.168 to 2.79 µM). The MIC (Staph.; [5]) was 0.25 to 2 µg/mL (≈ 0.349 to 2.79 µM) and the MIC (Staph.; [6]) was 0.12 to 2 µg/mL (≈ 0.168 to 2.79 µM).
Molecule `CCCN(CC(=O)Nc1cc(N(C)C)c2c(c1O)C(=O)C1=C(O)[C@]3(O)C(=O)C(C(N)=O)=C(O)[C@@H](N(C)C)[C@@H]3C[C@@H]1C2)C(=O)OCOC(=O)Cc1ccccc1` [Example 11, ({[(2-{[(5aR,6aS,7S,10aS)-9-(aminocarbonyl)-4,7-bis(dimethylamino)-1,8,10a,11′-tetrahydroxy-10,12-dioxo-5,5a,6,6a,7,10,10a,12-octahydrotetracen-2-yl]amino}-2-oxoethyl)(propyl)amino]carbonyl}oxy)methyl phenylacetate] has an MIC (E. coli GC 2236; Mouse Serum pre-incubation) of 0.5 µg/mL (≈ 0.655 µM), an MIC (E. coli GC 2236; Water pre-incubation) of 8 µg/mL (≈ 10.5 µM) and an MIC (E. coli GC 2235; Mouse Serum pre-incubation) of 0.25 µg/mL (≈ 0.327 µM). For the same molecule, the MIC (E. coli GC 2235; Water pre-incubation) was 4 µg/mL (≈ 5.24 µM), the MIC (E. coli GC 2233; Mouse Serum pre-incubation) was 0.25 µg/mL (≈ 0.327 µM) and the MIC (E. coli GC 2233; Water pre-incubation) was 8 µg/mL (≈ 10.5 µM). For the same molecule, the MIC (E. coli GC 2270; Mouse Serum pre-incubation) was 0.5 µg/mL (≈ 0.655 µM), the MIC (E. coli GC 2270; Water pre-incubation) was 8 µg/mL (≈ 10.5 µM) and the MIC (E. coli GC 2271; Mouse Serum pre-incubation) was 0.25 µg/mL (≈ 0.327 µM). For the same molecule, the MIC (E. coli GC 2271; Water pre-incubation) was 4 µg/mL (≈ 5.24 µM), the MIC (E. coli GC 4559; Mouse Serum pre-incubation) was 0.5 µg/mL (≈ 0.655 µM) and the MIC (E. coli GC 4559; Water pre-incubation) was 32 µg/mL (≈ 41.9 µM). For the same molecule, the MIC (E. coli GC 4560; Mouse Serum pre-incubation) was 0.12 µg/mL (≈ 0.157 µM), the MIC (E. coli GC 4560; Water pre-incubation) was 0.12 µg/mL (≈ 0.157 µM) and the MIC (E. coli GC 6465; Mouse Serum pre-incubation) was 8 µg/mL (≈ 10.5 µM). The MIC (E. coli GC 6465; Water pre-incubation) was > 64 µg/mL, the MIC (E. coli GC 2203; Mouse Serum pre-incubation) was 0.25 µg/mL (≈ 0.327 µM) and the MIC (E. coli GC 2203; Water pre-incubation) was 16 µg/mL (≈ 20.9 µM). It also gave an MIC (E. coli GC 1073; Mouse Serum pre-incubation) of 0.5 µg/mL (≈ 0.655 µM), an MIC (E. coli GC 1073; Water pre-incubation) of 16 µg/mL (≈ 20.9 µM) and an MIC (P. aeruginosa GC 2214; Mouse Serum pre-incubation) of 16 µg/mL (≈ 20.9 µM). For the same molecule, the MIC (P. aeruginosa GC 2214; Water pre-incubation) was > 64 µg/mL, the MIC (S. aureus GC 6467; Mouse Serum pre-incubation) was 4 µg/mL (≈ 5.24 µM) and the MIC (S. aureus GC 6467; Water pre-incubation) was 4 µg/mL (≈ 5.24 µM). For the same molecule, the MIC (S. aureus GC 4536; Mouse Serum pre-incubation) was 0.5 µg/mL (≈ 0.655 µM), the MIC (S. aureus GC 4536; Water pre-incubation) was 0.5 µg/mL (≈ 0.655 µM) and the MIC (S. aureus GC 6469; Mouse Serum pre-incubation) was 4 µg/mL (≈ 5.24 µM). It also gave an MIC (S. aureus GC 6469; Water pre-incubation) of 4 µg/mL (≈ 5.24 µM), an MIC (E. faecalis GC 4555; Mouse Serum pre-incubation) of 0.5 µg/mL (≈ 0.655 µM) and an MIC (E. faecalis GC 4555; Water pre-incubation) of 1 µg/mL (≈ 1.31 µM). For the same molecule, the MIC (E. faecalis GC 2265; Mouse Serum pre-incubation) was 2 µg/mL (≈ 2.62 µM), the MIC (E. faecalis GC 2265; Water pre-incubation) was 4 µg/mL (≈ 5.24 µM) and the MIC (E. faecalis GC 2242; Mouse Serum pre-incubation) was 0.25 µg/mL (≈ 0.327 µM). For the same molecule, the MIC (E. faecalis GC 2242; Water pre-incubation) was 0.5 µg/mL (≈ 0.655 µM), the MIC (S. agalactiae GC 4564; S. agalactiae GC 4564, Water pre-incubation) was <0.06 UG/ML and the MIC (S. agalactiae GC 4564; Streptococcus agalactiae, GC4564) was < 0.06 µg/mL. The MIC (E. coli; [1]) was 0.25 to 2 µg/mL (≈ 0.327 to 2.62 µM), the MIC (E. coli; [2]) was 0.25 to 2 µg/mL (≈ 0.327 to 2.62 µM) and the MIC (Staph.; [3]) was 0.25 to 4 µg/mL (≈ 0.327 to 5.24 µM). It also gave an MIC (Staph.; [4]) of 0.25 to 4 µg/mL (≈ 0.327 to 5.24 µM), an MIC (Staph.; [5]) of 0.25 to 4 µg/mL (≈ 0.327 to 5.24 µM) and an MIC (Staph.; [6]) of 0.25 to 4 µg/mL (≈ 0.327 to 5.24 µM).
